This note sets out measurements from US12570648B2, “6,7-dihydro-5H-pyrido[2,3-c]pyridazine derivatives and related compounds as Bcl-xL protein inhibitors and pro-apoptotic agents for treating cancer” (LES LABORATOIRES SERVIER, priority 2019, dated 2026).

Experiment [1] has as its target GST(1-218)-(FACTOR_XA)-hsBCLXL(2-209) (Homo sapiens (Human), UniProt Q07817). Description: Fluorescence polarisation assay. In kind it is binding. On the procedure:
Fluorescence polarization measures the rotation of a fluorescing species in solution, the larger the molecule the more polarized the fluorescence emission.
(GST UniProtKB® primary accession number P08515 and BCLXL UniProtKB® primary accession number Q07817-1), • resulting in an increase in anisotropy. If a compound is added which competitively binds to the same site as the probe, thereby releasing it, anisotropy decreases due to the increased amount of free probe.
An 11-point serial dilution of each compound was prepared in DMSO, the final buffer conditions were 10 mM 4-(2-hydroxyethyl)-1-piperazineethanesulfonic acid [HEPES], 150 mM NaCl, 0.05% Tween 20, pH 7.4 and 5% DMSO. The final protein concentration in the assay was 20 nM with the fluorescent probe present at 10 nM. […] 1; 37 (WebServer issue): W441-W445.

The subject of a further experiment is H146 cells. Description: H146 cell viability using MTT assay. In kind it is cell-based. Conditions: Homo sapiens, NCI-H146, 48 h exposure. The method, boiled down: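 IC50 comes from four-parameter fits of optical density at 540 nm. Readout used 4 h MTT reduction followed by overnight SDS/HCl solubilisation, after 48 h compound exposure across nine 3.16-fold dilutions in triplicate. Culture medium was RPMI 1640 with 10% heat-inactivated FBS, antibiotics and L-glutamine.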

The subject of a further experiment is MOLT-4 cells. Description: MOLT-4 cell viability using MTT assay. In kind it is cell-based. Conditions: Homo sapiens, MOLT-4, 48 h, 48 h exposure. As for the experimental part:
MTT colorimetric assay is based on the mitochondrial reduction of tetrazolium salt by living cells.
Cells were cultured at 37° C. in a humidified atmosphere containing 5% CO2. […] At the end of incubation time, 15 μL of MTT solution (5 mg/ml) were added per well and the cells were incubated for another 4 h. […] IC50s were calculated using standard four-parametric curve fitting.

Experiment [2] concerns the target His-His-(EK)-hsBCLXL(2-197)[N197C] (Homo sapiens (Human), UniProt Q07817, N197C). Description: Fluorescence quenching assay. In kind it is binding. Conditions: 1 nM Cy5-labelled protein, 400 nM PUMA peptide, 2 hours at 23° C.; KI determined from IC50. The method, boiled down:
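Ki values converted from IC50s, measured as fluorescence increase (Ex 620/Em 680 nm) after 2 h at 23° C. Compounds were titrated over 11 points against 1 nM Cy5-BCL-xL and 400 nM quencher-tagged PUMA peptide in pH 7.4 HEPES (10 mM), 150 mM NaCl, 0.05% Tween 20, 5% DMSO.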

GST(1-218)-(FACTOR_XA)-hsBCLXL(2-209), sequence (Q07817 other isoform, or with tags, fused parts or gaps): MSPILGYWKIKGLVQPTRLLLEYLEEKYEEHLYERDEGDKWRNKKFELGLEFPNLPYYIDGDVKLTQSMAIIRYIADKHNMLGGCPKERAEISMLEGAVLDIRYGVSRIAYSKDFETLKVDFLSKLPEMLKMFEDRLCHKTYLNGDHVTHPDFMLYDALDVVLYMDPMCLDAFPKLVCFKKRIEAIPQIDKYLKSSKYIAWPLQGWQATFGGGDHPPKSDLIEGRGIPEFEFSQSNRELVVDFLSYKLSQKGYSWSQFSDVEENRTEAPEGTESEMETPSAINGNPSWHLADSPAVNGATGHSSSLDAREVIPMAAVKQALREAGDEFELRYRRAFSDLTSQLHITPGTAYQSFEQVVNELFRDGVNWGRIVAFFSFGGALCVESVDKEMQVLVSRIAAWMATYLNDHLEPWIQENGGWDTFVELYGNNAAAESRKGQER
His-His-(EK)-hsBCLXL(2-197)[N197C], sequence (Q07817 2-197 N197C): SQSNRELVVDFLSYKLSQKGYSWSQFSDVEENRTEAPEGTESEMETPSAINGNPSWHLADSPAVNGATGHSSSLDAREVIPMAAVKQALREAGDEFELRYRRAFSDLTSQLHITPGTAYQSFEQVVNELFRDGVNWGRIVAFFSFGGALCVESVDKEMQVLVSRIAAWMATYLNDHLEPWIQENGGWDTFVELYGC

The compound `O=C(O)c1nc(-n2ccc3cc(Nc4nc5ccccc5s4)nnc32)sc1CCCOc1ccccc1F` [Example 9, 2-{3-[(1,3-Benzothiazol-2-yl)amino]-7H-pyrrolo[2,3-c]pyridazin-7-yl}-5-[3-(2-fluorophenoxy)propyl]-1,3-thiazole-4-carboxylic acid] displayed a Ki in experiment [1] of 13 nM. Further, half-maximal inhibition in the experiment on H146 cells (IC50) required 2340 nM.
As for `O=C(O)c1csc(N2CCc3cc(Nc4nc5ccccc5s4)nnc32)n1` [Example 10, 2-{3-[(1,3-Benzothiazol-2-yl)amino]-5H,6H,7H-pyrrolo[2,3-c]pyridazin-7-yl}-1,3-thiazole-4-carboxylic acid], the Ki in experiment [1] was 210 nM. Moreover, the IC50 in the experiment on H146 cells and with MOLT-4 cells was greater than 15000 nM throughout.
`Cc1c(Nc2nc3ccccc3s2)nnc2c1CCN2c1nc(C(=O)O)c(-c2cnn(CC34CC5CC(CC(C5)C3)C4)c2C)s1` [Example 13, 5-{1-[(Adamantan-1-yl)methyl]-5-methyl-1H-pyrazol-4-yl}-2-{3-[(1,3-benzothiazol-2-yl)amino]-4-methyl-5H,6H,7H-pyrrolo[2,3-c]pyridazin-7-yl}-1,3-thiazole-4-carboxylic acid] showed a Ki in experiment [1] of 9.2 nM. In addition, the half-inhibitory concentration (IC50) in the experiment on H146 cells was determined as 790 nM; in the experiment with MOLT-4 cells, 126 nM.
Taken in the same sequence, the figures for `COCCCC1(Cn2ncc(-c3sc(N4CCc5c4nnc(Nc4nc6ccccc6s4)c5C)nc3C(=O)O)c2C)CCCCCCC1` [Example 14, 2-{3-[(1,3-Benzothiazol-2-yl)amino]-4-methyl-5H,6H,7H-pyrrolo[2,3-c]pyridazin-7-yl}-5-(1-{[1-(3-methoxypropyl)cyclooctyl]methyl}-5-methyl-1H-pyrazol-4-yl)-1,3-thiazole-4-carboxylic acid] were 5.5 nM, 3080 nM and 453 nM.
In turn, `Cc1c(Nc2nc3ccccc3s2)nnc2c1CCCN2c1nc(C(=O)O)cs1` [Example 15, 2-{3-[(1,3-Benzothiazol-2-yl)amino]-4-methyl-5H,6H,7H,8H-pyrido[2,3-c]pyridazin-8-yl}-1,3-thiazole-4-carboxylic acid] displayed an inhibitory constant (Ki) in experiment [1] of 2.3 nM. Further, the figures for the IC50 in the experiment on H146 cells and in the experiment with MOLT-4 cells were 2600 nM and 1050 nM, respectively.
Taken in the same sequence, the figures for `COCCCC1(Cn2ncc(-c3sc(N4CCc5c4nnc(Nc4nc6ccccc6s4)c5C)nc3C(=O)O)c2C)CCCCC1` [Example 17, 2-{3-[(1,3-Benzothiazol-2-yl)amino]-4-methyl-5H,6H,7H-pyrrolo[2,3-c]pyridazin-7-yl}-5-(1-{[1-(3-methoxypropyl)cyclohexyl]methyl}-5-methyl-1H-pyrazol-4-yl)-1,3-thiazole-4-carboxylic acid] were 2 nM, 393 nM and 128 nM.
Taken in the same sequence, the figures for `Cc1c(Nc2nc3ccccc3s2)nnc2c1CCN2c1cccc(C(=O)O)n1` [Example 20, 6-{3-[(1,3-Benzothiazol-2-yl)amino]-4-methyl-5H,6H,7H-pyrrolo[2,3-c]pyridazin-7-yl}pyridine-2-carboxylic acid] were 85 nM, 3100 nM and 162 nM.
Taken in the same sequence, the figures for `Cc1c(Nc2nc3ccccc3s2)nnc2c1CCCN2c1cccc(C(=O)O)n1` [Example 21, 6-{3-[(1,3-Benzothiazol-2-yl)amino]-4-methyl-5H,6H,7H,8H-pyrido[2,3-c]pyridazin-8-yl}pyridine-2-carboxylic acid] were 1600 nM, greater than 15000 nM and 4230 nM.
In the case of `Cc1c(Nc2nc3ccccc3s2)nnc2c1CCN2c1nc(C(=O)O)c(CCCOc2ccc(C#CCN(C)C)cc2F)s1` [Example 22, 2-{3-[(1,3-Benzothiazol-2-yl)amino]-4-methyl-5H,6H,7H-pyrrolo[2,3-c]pyridazin-7-yl}-5-(3-{4-[3-(dimethylamino)prop-1-yn-1-yl]-2-fluorophenoxy}propyl)-1,3-thiazole-4-carboxylic acid], the results for the Ki in experiment [1] and in experiment [2] were 3 nM and 0.025 nM, respectively. Also, the half-maximal inhibitory concentration (IC50) with H146 cells worked out at 12.7 nM; in the experiment with MOLT-4 cells it was 3.42 nM.
Taken in the same sequence, the figures for `Cc1c(Nc2nc3ccccc3s2)nnc2c1ccn2-c1ccc(-c2cnn(CC34CC5CC(CC(C5)C3)C4)c2C)c(C(=O)O)n1` [Example 23] were 1.1 nM, 0.051 nM, 2.77 nM and 0.948 nM.
In experiment [1], `Cc1c(Nc2nc3ccccc3s2)nnc2c1CCCCN2c1nc(C(=O)O)cs1` [Example 25, 2-{3-[(1,3-Benzothiazol-2-yl)amino]-4-methyl-5H,6H,7H,8H,9H-pyridazino[3,4-b]azepin-9-yl}-1,3-thiazole-4-carboxylic acid] came in with a Ki of 120 nM.
In turn, `Cc1c(Nc2nc3ccccc3s2)nnc2c1CCCN2c1cccc(C(=O)O)c1` [Example 26, 3-{3-[(1,3-Benzothiazol-2-yl)amino]-4-methyl-5H,6H,7H,8H-pyrido[2,3-c]pyridazin-8-yl}benzoic acid] came in with a Ki in experiment [1] of 15000 nM. In addition, the concentration for half-maximal inhibition (IC50) in the experiment with H146 cells is greater than 15000 nM; in the experiment on MOLT-4 cells, no less than 13400 nM.
Regarding `Cc1c(Nc2nc3ccccc3s2)nnc2c1CCCN2c1nc(C(=O)O)c(CCCOc2ccc(C#CCN(C)C)cc2F)s1` [Example 27, 2-[3-(1,3-Benzothiazol-2-ylamino)-4-methyl-6,7-dihydro-5H-pyrido[2,3-c]pyridazin-8-yl]-5-[3-[4-[3-(dimethylamino)prop-1-ynyl]-2-fluoro-phenoxy]propyl]thiazole-4-carboxylic acid], the Ki was less than 1 nM in experiment [1] and 0.0085 nM in experiment [2]. In the experiment with H146 cells, it took 6.53 nM to reach half-maximal inhibition (IC50).
Compound `O=C(O)c1csc(N2CCc3c2nnc(Nc2nc4ccccc4s2)c3C2CC2)n1` [Example 28, 2-{3-[(1,3-Benzothiazol-2-yl)amino]-4-cyclopropyl-5H,6H,7H-pyrrolo[2,3-c]pyridazin-7-yl}-1,3-thiazole-4-carboxylic acid] showed a Ki in experiment [1] of 14 nM. For the same compound, the IC50 worked out at 3140 nM in the experiment with H146 cells and 880 nM in the experiment on MOLT-4 cells.
`Cc1c(Nc2nc3ccccc3s2)nnc2c1CCCCN2c1ccc(-c2cnn(CC34CC5CC(CC(C5)C3)C4)c2C)c(C(=O)O)n1` [Example 29, 3-{1-[(Adamantan-1-yl)methyl]-5-methyl-1H-pyrazol-4-yl}-6-{3-[(1,3-benzothiazol-2-yl)amino]-4-methyl-5H,6H,7H,8H,9H-pyridazino[3,4-b]azepin-9-yl}pyridine-2-carboxylic acid] came in with an inhibitory constant (Ki) in experiment [1] of 9.6 nM.
In the case of `CN(C)CC#Cc1ccc(OCCCc2sc(N3CCCc4c3nnc(Nc3nc5ccccc5s3)c4C3CC3)nc2C(=O)O)c(F)c1` [Example 30, 2-{3-[(1,3-Benzothiazol-2-yl)amino]-4-cyclopropyl-5H,6H,7H,8H-pyrido[2,3-c]pyridazin-8-yl}-5-(3-{4-[3-(dimethylamino)prop-1-yn-1-yl]-2-fluorophenoxy}propyl)-1,3-thiazole-4-carboxylic acid], the Ki in experiment [1] is less than 1 nM; in experiment [2], 0.0036 nM. Further, the IC50 in the experiment on H146 cells stood at 6.55 nM; in the experiment on MOLT-4 cells, 0.775 nM.
Regarding `CNCC#Cc1ccc(OCCCc2sc(N3CCCc4c3nnc(Nc3nc5ccccc5s3)c4C)nc2C(=O)O)c(F)c1` [Example 32, 2-{3-[(1,3-Benzothiazol-2-yl)amino]-4-methyl-5H,6H,7H,8H-pyrido[2,3-c]pyridazin-8-yl}-5-(3-{2-fluoro-4-[3-(methylamino)prop-1-yn-1-yl]phenoxy}propyl)-1,3-thiazole-4-carboxylic acid], the values for the inhibition constant Ki in experiment [1] and in experiment [2] were less than 1 nM and 0.0046 nM, respectively. The same compound came in with an IC50 with MOLT-4 cells of 0.987 nM.
On to `Cc1c(Nc2nc3ccccc3s2)nnc2c1C[C@@H](O)CN2c1nc(C(=O)O)cs1` [Example 33, 2-[(6R)-3-[(1,3-Benzothiazol-2-yl)amino]-6-hydroxy-4-methyl-5H,6H,7H,8H-pyrido[2,3-c]pyridazin-8-yl]-1,3-thiazole-4-carboxylic acid], for which the Ki in experiment [1] is 5.5 nM; in experiment [2] it was 1.4 nM.
For the compound `Cc1c(Nc2nc3ccccc3s2)nnc2c1CCCN2c1nc(C(=O)O)c(CCCOc2ccc(CCCN(C)C)cc2F)s1` [Example 36, 2-{3-[(1,3-Benzothiazol-2-yl)amino]-4-methyl-5H,6H,7H,8H-pyrido[2,3-c]pyridazin-8-yl}-5-(3-{4-[3-(dimethylamino)propyl]-2-fluorophenoxy}propyl)-1,3-thiazole-4-carboxylic acid], the inhibitory constant (Ki) was less than 1 nM in experiment [1] and 0.0017 nM in experiment [2]. The same compound yielded an IC50 in the experiment with H146 cells of 5.51 nM.
